# Peptide text beside a SMILES is read from it. * marks the point of attachment. Cbz = O=C(OCc1ccccc1)*
# How the values were obtained:
# [1] = tested on: T1, proteasomes isolated from rabbit reticulocytes; type: biochemical; conditions: Lineweaver-Burk plot analysis
# T1 construct: other: Lineweaver-Burk plot analysis; other: at the Fa 10; other: at the Fa 25; other: at the Fa 50
# Description: (§1) Data represent the mean±SD.
# (§2) After incubation, cleavage of the fluorogenic substrate Z-Leu-Leu-Glu-AMC was measured as above. […] The approximate binding sites of bortezomib that is located inside the catalytic chamber are also indicated.
# (§3) Proteasome complexes were isolated from rabbit reticulocytes and T. acidophilum as described previously.
# (§4) Data are expressed as mean values±SD. The statistical significance was computed with Student's t-test. […] Isobologram analysis was performed with CalcuSyn software (Biosoft, Ferguson, Mo., and Cambridge, UK). A combination index (CI) less than 1.0 indicated synergism.
# [2] = biological target: T2, proteasomes isolated from rabbit reticulocytes; type: biochemical; conditions: Lineweaver-Burk plot analysis, noncompetitive model
# T2 construct: Ki
# Description: as §1, §2, §3, §4
# [3] = biological target: T3, proteasome isolated from archaebacterium T. acidophilum (Thermoplasma acidophilum, UniProt P25156); test: enzymatic activity of purified T. acidophilum proteasome (Suc-LLVY-AMC cleavage); type: biochemical
# T3 construct: made in house
# T3 sequence (P25156 whole entry): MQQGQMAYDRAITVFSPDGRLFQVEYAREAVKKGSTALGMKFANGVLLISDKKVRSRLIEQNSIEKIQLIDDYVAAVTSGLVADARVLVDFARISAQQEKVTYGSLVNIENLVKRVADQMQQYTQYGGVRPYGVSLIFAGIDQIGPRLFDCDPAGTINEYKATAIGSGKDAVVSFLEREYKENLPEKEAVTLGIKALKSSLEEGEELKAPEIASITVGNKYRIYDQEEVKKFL
# T3 sequence (P28061 9-211 partner): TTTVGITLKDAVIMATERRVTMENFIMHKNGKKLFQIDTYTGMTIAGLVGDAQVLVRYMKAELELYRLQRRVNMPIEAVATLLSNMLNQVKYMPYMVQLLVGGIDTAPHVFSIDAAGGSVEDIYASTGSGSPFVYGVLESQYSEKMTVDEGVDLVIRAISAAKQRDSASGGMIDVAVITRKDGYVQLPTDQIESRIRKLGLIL
# Source text: Data represent the mean±SD. A Lineweaver-Burk plot is presented as a fit to a noncompetitive model of inhibition.
# as §3
# [4] = tested on: proteasome in protein extracts from MDAY-D2 leukemia cells; test: proteasome activity in cell extracts (Suc-LLVY-AMC); type: biochemical, murine; conditions: added to extracts derived from MDAY-D2 leukemia cells
# Description: A) Protein extracts from MDAY-D2 leukemia cells were treated with aliquots of compounds from a focused chemical library (final concentration 5 μM).
# [5] = biological target: T4, α7-α7 half-proteasome of the T. acidophilum 20S proteasome (Thermoplasma acidophilum, UniProt P25156); test: inhibitor binding to the proteasome by NMR; conditions: 50° C., methyl-labelled α7-α7
# T4 construct: His-tag (N, cleaved yes); made in house
# T4 sequence (P25156 whole entry): as the sequence (P25156 whole entry) above
# Source text: The 20S proteasome from T. acidophilum was produced as described previously with the alpha and beta subunits co-expressed from 2 different plasmids (where the beta subunit carried a C terminal His-tag). Samples of the half-proteasome comprised of pairs of alpha-rings, a7-a7, were produced by overexpression of the a subunit that carried a N-terminal cleavable His-tag that was removed during purification. Methyl labelling of proteins for NMR analysis was achieved by growing cells in D2O based minimal medium with ^2H-^12C glucose as the carbon source. One hour before induction of protein expression, alpha-ketobutyric acid (60 mg/L) and alpha-ketoisovaleric acid (100 mg/L; only one of the two isopropyl methyls was ^13CH3 labeled, the other ^12CD3) were added to introduce ^13CH3 methyl groups in Ile, Leu and Val. Proteins were purified by Ni-NTA affinity resin and size exclusion chromatography.
# NMR experiments with the (a7-a7) proteasome were performed on Varian 600 MHz spectrometers at 50° C. on samples that were ˜[…], 100% D2O, 25 mM potassium phosphate pH 6.8, 50 mM NaCl, 1 mM EDTA, 0.03% NaN3 and 2 mM DTT similar to previously described. NMR data was processed and analyzed with the nmrPipe/nmrDraw software package.
# LP1 myeloma cell lines = test: ubiquitinated proteins by immunoblotting; type: cell-based, human; conditions: 24 hours after treatment
# Description: Whole cell lysates were prepared from myeloma cells as described previously. Briefly, cells were washed with phosphate-buffered saline (PBS, pH 7.4) and re-suspended in lysis buffer [10 mM Tris (pH 7.4), 150 mM NaCl, 0.1% Triton X-100, 0.5% sodium deoxycholate, and 5 mM EDTA] containing protease inhibitors (Complete tablets, Roche, Indianapolis, Ind.). Protein concentrations were determined by the Bradford assay. Equal amounts of protein were subjected to SDS-PAGE gels followed by transfer to nitrocellulose membranes. Membranes were probed with rabbit anti-human polyclonal anti-ubiquitin (1:1000 v/v) (Calbiochem, San Diego, Calif.), or mouse monoclonal anti-beta actin (1:10,000 v/v) (Sigma) followed by secondary horseradish peroxidase (HRP)-conjugated goat anti-mouse (1:10,000 v/v) or anti-rabbit IgG (1:5,000 v/v) (Amersham Bioscience UK, Little Chalfont, England). Detection was performed by the Enhanced Chemical Luminescence (ECL) method (Pierce, Rockford, Ill.).
# Twenty four hours after treatment, the abundance of ubiquitinated proteins in the cells was measured by immunoblotting.
# [6] = tested on: NFkappaB p50 subunit DNA binding in MDAY-D2 cells; test: NFkappaB activity (p50 DNA-binding ELISA); type: cell-based, murine; conditions: 24 hours 5AHQ, with and without TNF-alpha
# Description: NFkappaB activity was measured using the Trans-AM NFkappaB p65 transcription factor assay kit (Active Motif, Carlsbad, Calif.) according to the manufacturer's instructions. […] Nuclear extracts were prepared using the Nuclear Extract kit (Active Motif, Carlsbad, Calif.) according to the manufacturer's instructions. Binding of the NFkappaB transcription factor subunit p50 to the DNA consensus sequence (5′-[…]-3′) cross linked to 96-well plates was measured using enzyme-linked immunosorbent assay (ELISA) technology with absorbance reading according to the manufacturer's protocol.
# myeloma cell lines = test: cell viability MTS assay, myeloma cell lines; type: cell-based, human; conditions: 72 hours, in 7/7 myeloma cell lines
# leukemia cell lines = test: cell viability MTS assay, leukemia cell lines; type: cell-based, human and murine; conditions: 72 hours, in 6/10 leukemia cell lines
# solid tumor cell lines = test: cell viability MTS assay, solid tumor cell lines; type: cell-based, human; conditions: 72 hours, in 3/10 solid tumor cell lines
# [7] = tested on: normal hematopoietic cells; test: viability of normal hematopoietic cells (PBSC); type: cell-based, human
# Description: Forty-eight hours after treatment, cell viability was measured by the MTS assay. Data represent the mean±SD percent viability compared to buffer treated cells. D) Primary acute myeloid leukemia (AML) blasts (n=4), CLL (n=5) or normal peripheral blood stem cells (PBSC) (n=3) were obtained from the peripheral blood of consenting patients with AML, CLL or donors of PBSC for allotransplantation, respectively. […] Data represent the mean±SD percentage of viable cells compared to buffer treated cells.
# Primary cells. Primary human acute myeloid leukemia (AML) and chronic lymphocytic leukemia (CLL) samples were isolated from peripheral blood samples from consenting patients with AML and CLL, respectively, who had at least 80% malignant cells among the mononuclear cells in their peripheral blood. Primary normal hematopoietic cells were obtained from healthy volunteers donating peripheral blood mononuclear stem cells (PBSC) for allotransplantation. […]
# Cell viability was assessed by the MTS (Promega, Madison, Wis.) and Alamar Blue Fluorescence assays (Invitrogen, Carlsbad, Calif.) according to manufacturer's instructions and as previously described [14]. Apoptosis was measured by Annexin V-FITC (Biovision Research Products, Mountain View, Calif.) staining and flow cytometry according to manufacturer's instructions and as previously described.
# [8] = tested on: CEM cells over-expressing the multidrug resistant pumps Pgp, BCRP, or MRP1; test: cell death in bortezomib-resistant CEM cells; type: cell-based; conditions: CEM cells resistant to bortezomib by over-expression of Pgp
# [9] = tested on: OCI-AML2 or K562 human leukemia cells, MDAY-D2 murine leukemia cells in NOD-SCID mice; test: mouse models of leukemia (xenograft), oral 5AHQ; type: in vivo
# Description: Sublethally irradiated NOD/SCID mice were injected subcutaneously with U937 and K562 leukemia cells or intraperitoneally with MDAY-D2 leukemia cells. […] Eight (MDAY-D2) or ten (U937 and K562) days after tumor inoculation, mice were sacrificed, the subcutaneous or intraperitoneal tumor excised, and the weight of the tumors measured. The bars represent the median of the population. p values reflect the Mann-Whitney non-parametric test.
# MDAY-D2 murine leukemia cells (5×10^5) were injected intraperitoneally into sublethally irradiated (3.5 Gy) NOD/SCID mice (Ontario Cancer Institute, Toronto, Canada). […] Mice were sacrificed, and the weight and volume of the intraperitoneal tumors were measured.
# K562 leukemia cells (3×10^6) or U937 leukemia cells (2×10^6) were injected subcutaneously (s.c.) into the flank of sublethally irradiated NOD/SCID mice. […] Mice were then sacrificed, and the weight of the tumors was measured.
# Sublethally irradiated NOD-SCID mice were injected subcutaneously with OCI-AML2 or K562 human leukemia cells or intraperitoneally with MDAY-D2 murine leukemia cells.
# LD50 in mice = conditions: mouse, in vivo
# [10] = tested on: bortezomib-resistant THP1 leukemia cells (β5 proteasome subunit mutated and over-expressed); conditions: 72 hours, trypan blue staining
# Description: (§5) Cell lines. Human multiple myeloma (MM) and solid tumor cell lines were grown in Iscove's Modified Dulbecco's Medium (IMDM). […] These cells were maintained in bortezomib up to at least 7 days prior to the experiment. Media were supplemented with 10% fetal calf serum (FCS), 100 ug/mL penicillin, and 100 units/mL streptomycin (all from Hyclone, Logan, Utah).
# (§6) After incubation, cell viability was measured by trypan blue staining.
# THP1/BTZ50 [11] = test: cells; conditions: Homo sapiens, THP-1, 72 h, read-out: IC50 5AHQ
# Description: as §5, §6
# THP1/BTZ100 [12] = test: cells; conditions: Homo sapiens, THP-1, 72 h, read-out: IC50 5AHQ
# Description: as §5, §6
# THP1/BTZ200 [13] = test: cells; conditions: Homo sapiens, THP-1, 72 h, read-out: IC50 5AHQ
# Description: as §5, §6
# THP1/BTZ500 [14] = test: cells; conditions: Homo sapiens, THP-1, 72 h, read-out: IC50 5AHQ
# Description: as §5, §6
# [15] = tested on: chymotrypsin-like activity of the proteasome in leukemia, myeloma, and solid tumor cell lines; test: proteasome activity after treatment of intact cells (Suc-LLVY-AMC); conditions: intact cells treated 24 hours, then lysed
# Description: A) Myeloma, leukemia, and solid tumor cell lines were treated with increasing concentrations of 5AHQ. Twenty hours after treatment, cells were lysed and the preferential chymotrypsin-like substrate Suc-LLVY-AMC was added. The generation of free AMC was measured over time with a fluorescent spectrophotometric plate reader as described in the Materials and Methods. Data represent the mean±SD maximal rate of proteasomal activity expressed as a percentage of buffer treated cells.
# To measure the effects of 5AHQ on the enzymatic activity of the proteasome in intact cells, solid tumor, leukemia and myeloma cell lines were treated with increasing concentrations of 5AHQ. Twenty hours after treatment, cells were lysed in 50 mM HEPES pH 7.5, 150 mM NaCl and 1% Triton X-100, and 2 mM ATP. To equal protein concentrations, the proteasome fluorogenic substrate, Suc-LLVY-AMC, was added and the generation of free AMC was measured over time with a fluorescent spectrophotometric plate reader as above.
# Leukemia, myeloma, and solid tumor cell lines were treated with increasing concentration of 5AHQ for 24 hours. After treatment, cells were harvested, lysed, and the chymotrypsin-like activity of the proteasome was measured by monitoring the rate of cleavage of the fluorescent substrate Suc-LLVY-AMC.
# proteasome = conditions: non-competitive inhibitor binding the alpha subunits [8]; cited from earlier work
# THP1/WT = conditions: data from Oerlemans et al, 2008; cited from earlier work
# THP1/BTZ50 [16] = conditions: data from Oerlemans et al, 2008; cited from earlier work
# THP1/BTZ100 [17] = conditions: data from Oerlemans et al, 2008; cited from earlier work
# THP1/BTZ200 [18] = conditions: data from Oerlemans et al, 2008; cited from earlier work
# THP1/BTZ500 [19] = conditions: data from Oerlemans et al, 2008; cited from earlier work
smiles,measurement,setting,value
"CC(C)C[C@@H](C=O)NC(=O)[C@H](CC(C)C)NC(=O)[C@H](CC(C)C)NC(=O)OCc1ccccc1 [MG132, reference compound] (Cbz-Leu-Leu-Leu-aldehyde)",mode of inhibition,[1],competitively
"Nc1ccc(O)c2ncccc12 [5AHQ, 5-amino-8-hydroxyquinoline]",mode of inhibition,[1],noncompetitively
same,Ki,[2],2.1 ± 0.18 µM
same,Ki,[3],161 ± 4 µM
same,mode of inhibition,[3]; Lineweaver-Burk plot,non-competitive kinetics
same,inhibition of the enzymatic activity of the proteasome,[4],inhibited the enzymatic activity of the proteasome at low micromolar concentrations
same,NMR spectral changes on binding,[5],"clear spectral changes localized to residues Ile159, Val113, Val87, Val82, Leu112, Val89, Val134, Val24 and Leu136"
same,amount of ubiquitinated protein,LP1 myeloma cell lines,increased the amount of ubiquitinated protein
same,NFkappaB activity,[6],inhibited basal and TNF-alpha stimulated NFkappaB activity
same,LD50,myeloma cell lines,< 5 µM
same,LD50,leukemia cell lines,< 5 µM
same,LD50,solid tumor cell lines,< 5 µM
same,concentration up to which not cytotoxic,[7],> 62.5 µM
same,sensitivity to 5AHQ-induced cell death,[8],remained equally sensitive to 5AHQ-induced cell death
same,decrease of tumor weight and volume compared to control,"[9]; 50 mg/kg/day by oral gavage, all 3 mouse models",at least 50%
same,weight loss or gross organ toxicity,"[9]; mouse, in vivo",without causing weight loss or gross organ toxicity
same,LD50,LD50 in mice,> 1000 mg/kg
same,sensitivity to 5AHQ,[10],remained essentially fully sensitive to 5AHQ
same,IC50,THP1/BTZ50 [11],6.6 ± 0.4 µM
same,IC50,THP1/BTZ100 [12],6.3 ± 0.4 µM
same,IC50,THP1/BTZ200 [13],6.4 ± 0.7 µM
same,IC50,THP1/BTZ500 [14],6.6 ± 0.9 µM
same,rate of Suc-LLVY-AMC cleavage,[15],inhibited the rate of Suc-LLVY-AMC cleavage
CCN(CC)CCCC(C)Nc1ccnc2cc(Cl)ccc12 (centres unmarked) [chloroquine],proteasome inhibition relative to 5AHQ,proteasome,much weaker proteasome inhibitor than 5AHQ
"CC(C)C[C@H](NC(=O)[C@H](Cc1ccccc1)NC(=O)c1cnccn1)B(O)O [bortezomib, [(1R)-3-Methyl-1-[[(2S)-1-oxo-3-phenyl-2-[(pyrazinylcarbonyl)amino]propyl]amino]butyl]boronic acid]",RF BTZ (Resistance Factor),THP1/WT,1
same,RF BTZ (Resistance Factor),THP1/BTZ50 [16],45
same,RF BTZ (Resistance Factor),THP1/BTZ100 [17],79
same,RF BTZ (Resistance Factor),THP1/BTZ200 [18],129
same,RF BTZ (Resistance Factor),THP1/BTZ500 [19],237

# — patent US20110319427A1 (priority 2009, published 2011)
